Results on 25 compounds are retold here after PubChem BioAssay AID330 (DTP/NCI, 2004).

The test system of this assay is P388 leukemia ip, CD2F1 mice, survival T/C. In words: NCI In Vivo Anticancer Drug Screen. Data for tumor model P388 Leukemia (intraperitoneal) in CD2F1 (CDF1) mice. The settings on record: endpoint: median survival time, higher = longer survival. The procedure, abridged: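 Mice carrying the transplanted tumor received test compound or vehicle. Survival was recorded in each group, and the value is the treated-group measurement divided by that of the vehicle-treated control group.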

Where [1] appears, read: dose: 50.0 mg/kg/injection, schedule: Q01DX005 (ip), vehicle: saline with Tween-80.
Where [2] appears, read: dose: 100.0 mg/kg/injection, schedule: Q01DX005 (ip), vehicle: saline with Tween-80.
Setting [3] is: dose: 50.0 mg/kg/injection, schedule: Q01DX005 (ip), vehicle: saline.
Where [4] appears, read: dose: 100.0 mg/kg/injection, schedule: Q01DX005 (ip), vehicle: saline.
Setting [5] is: dose: 200.0 mg/kg/injection, schedule: Q01DX005 (ip), vehicle: saline.
Where [6] appears, read: dose: 50.0 mg/kg/injection, schedule: Q01DX005 (ip), vehicle: Klucel (hydroxypropylcellulose) (HPC).
Setting [7] is: dose: 100.0 mg/kg/injection, schedule: Q01DX005 (ip), vehicle: Klucel (hydroxypropylcellulose) (HPC).
Where [8] appears, read: dose: 200.0 mg/kg/injection, schedule: Q01DX005 (ip), vehicle: Klucel (hydroxypropylcellulose) (HPC).
[9] abbreviates: dose: 60.0 mg/kg/injection, schedule: Q01DX005 (ip), vehicle: saline with Tween-80.
Setting [10] is: dose: 120.0 mg/kg/injection, schedule: Q01DX005 (ip), vehicle: saline with Tween-80.
Where [11] appears, read: dose: 240.0 mg/kg/injection, schedule: Q01DX005 (ip), vehicle: saline with Tween-80.
Where [12] appears, read: dose: 50.0 mg/kg/injection, schedule: Q01DX009 (ip), vehicle: saline with Tween-80.
Where [13] appears, read: dose: 100.0 mg/kg/injection, schedule: Q01DX009 (ip), vehicle: saline with Tween-80.
The mark [14] stands for this setting: dose: 200.0 mg/kg/injection, schedule: Q01DX009 (ip), vehicle: saline with Tween-80.
Setting [15] is: dose: 50.0 mg/kg/injection, schedule: Q04DX003 (ip), vehicle: Klucel (hydroxypropylcellulose) (HPC).
Where [16] appears, read: dose: 100.0 mg/kg/injection, schedule: Q04DX003 (ip), vehicle: Klucel (hydroxypropylcellulose) (HPC).
[17] abbreviates: dose: 200.0 mg/kg/injection, schedule: Q04DX003 (ip), vehicle: Klucel (hydroxypropylcellulose) (HPC).
[18] abbreviates: dose: 100.0 mg/kg/injection, schedule: Q01DX001 (ip), vehicle: saline.
[19] abbreviates: dose: 200.0 mg/kg/injection, schedule: Q01DX001 (ip), vehicle: saline.
The mark [20] stands for this setting: dose: 400.0 mg/kg/injection, schedule: Q01DX001 (ip), vehicle: saline.
Where [21] appears, read: dose: 25.0 mg/kg/injection, schedule: Q04DX003 (ip), vehicle: Klucel (hydroxypropylcellulose) (HPC).

“And” between values parts separate entries of the source, which are not always exact repeats. Identical values can stand only once. Toxic doses and inconclusive results are not listed.

For the compound `CC[C@]1(O)Cc2c(O)c3c(c(O)c2[C@@H](OC2CC(N)C(O)C(C)O2)C1)C(=O)c1c(OC)cccc1C3=O` (stereo partly specified), the T/C (dose: 1.2 mg/kg/injection, schedule: Q04DX003 (ip), vehicle: water) was 117 % of control; the T/C (dose: 1.56 mg/kg/injection, schedule: Q01DX009 (ip), vehicle: water) was 151 % of control and 169 % of control; the T/C (dose: 2.4 mg/kg/injection, schedule: Q04DX003 (ip), vehicle: water) was 119 % of control; the T/C (dose: 3.13 mg/kg/injection, schedule: Q01DX009 (ip), vehicle: water) was 156 % of control and 163 % of control; the T/C (dose: 6.25 mg/kg/injection, schedule: Q01DX009 (ip), vehicle: water) was 95 % of control; the T/C (dose: 37.5 mg/kg/injection, schedule: Q04DX003 (ip), vehicle: water) was 103 % of control.

Take `CCCCCCCN(CCCCCCC)CCCC(O)c1cccc2ccccc12` (stereo unspecified): the T/C (dose: 12.5 mg/kg/injection, schedule: Q01DX005 (ip), vehicle: saline with Tween-80) was 104 % of control; the T/C (dose: 25.0 mg/kg/injection, schedule: Q01DX005 (ip), vehicle: saline with Tween-80) is 107 % of control; the T/C under setting [1] was 103 % of control; the T/C under setting [2] was 107 % of control.

`OCCN1CCC(C2CCN(CCO)CC2)CC1`: the T/C under setting [3] is 96 % of control, the T/C under setting [4] was 97 % of control and the T/C under setting [5] is 98 % of control.

For the compound `C=C(C)C1CC=C(C)/C(=N/NC(=O)c2cccnc2)C1` (stereo unspecified), the T/C runs as follows: under setting [6], 116 % of control; under setting [7], 101 % of control; under setting [8], 109 % of control.

For `CC(C)C(=O)OCC(C)(C)C(OC(=O)COc1ccc(Cl)cc1Cl)C(C)C` (stereo unspecified), the T/C reads like this: under setting [1], 101 % of control; under setting [2], 106 % of control; (dose: 200.0 mg/kg/injection, schedule: Q01DX005 (ip), vehicle: saline with Tween-80) 97 % of control.

`CCn1c(C)nc2ncn(-c3ccccc3)c2c1=O`: the T/C under setting [6] was 100 % of control, the T/C under setting [7] was 100 % of control and the T/C under setting [8] is 98 % of control.

Turning to `O=C(NCCO)Nc1ccccc1F`, the T/C is, setting by setting: (dose: 100.0 mg/kg/injection, schedule: Q04DX003 (ip), vehicle: saline) 100 % of control; (dose: 200.0 mg/kg/injection, schedule: Q04DX003 (ip), vehicle: saline) 95 % of control; (dose: 400.0 mg/kg/injection, schedule: Q04DX003 (ip), vehicle: saline) 104 % of control.

With `CCN(CC)CCNN`, the T/C reads like this: under setting [3], 100 % of control; under setting [4], 100 % of control; under setting [5], 103 % of control.

Turning to `CS(=O)CCN=Cc1ccc(N=Nc2ccc(O)cc2)cc1` (stereo unspecified), the T/C was 103 % of control under setting [9], 103 % of control under setting [10] and 97 % of control under setting [11].

With `NC(=O)C(F)(F)C(F)(F)C(N)=O`, the T/C reads like this: under setting [9], 107 % of control; under setting [10], 112 % of control; under setting [11], 104 % of control.

For the compound `O=C(c1ccccc1)c1ccccc1-c1ccccc1C(=O)c1ccccc1`, the T/C was 102 % of control under setting [12], 92 % of control under setting [13] and 87 % of control under setting [14].

Consider `COc1ccc(/C(=C/c2ccc([N+](=O)[O-])cc2)C(=O)O)cc1`, for which the T/C runs as follows: under setting [6], 105 % of control; under setting [7], 105 % of control; under setting [8], 105 % of control.

Consider `COCCCOC(=O)Oc1ccc(CC(N)C(=O)O)cc1` (stereo unspecified), for which the T/C by setting is: under setting [6], 99 % of control; under setting [7], 99 % of control; under setting [8], 96 % of control.

As to `Cn1c([N+](=O)[O-])cnc1CSC(=S)N1CCN(C(=S)SCc2ncc([N+](=O)[O-])n2C)CC1`, the T/C runs as follows: under setting [12], 99 % of control and 104 % of control and 96 % of control; under setting [13], 101 % of control and 93 % of control and 95 % of control; under setting [14], 102 % of control and 107 % of control and 92 % of control.

Turning to `CN(C)c1nc(-c2ccccc2)cc(=O)[nH]1`, the T/C reads like this: (dose: 15.0 mg/kg/injection, schedule: Q01DX009 (ip), vehicle: saline with Tween-80) 102 % of control; (dose: 30.0 mg/kg/injection, schedule: Q01DX009 (ip), vehicle: saline with Tween-80) 108 % of control; under setting [15], 98 % of control; (dose: 60.0 mg/kg/injection, schedule: Q01DX009 (ip), vehicle: saline with Tween-80) 100 % of control; under setting [16], 94 % of control; under setting [17], 94 % of control. The T/C (dose: 400.0 mg/kg/injection, schedule: Q04DX003 (ip), vehicle: Klucel (hydroxypropylcellulose) (HPC)) was 92 % of control.

Regarding `CC(C)(C)c1ccc(OCc2cnc[nH]2)cc1`, the T/C is 102 % of control (dose: 25.0 mg/kg/injection, schedule: Q01DX001 (ip), vehicle: saline); 101 % of control (dose: 50.0 mg/kg/injection, schedule: Q01DX001 (ip), vehicle: saline); 110 % of control under setting [18].

On to `CCCCS[Si](SC(C)(C)C)(SC(C)(C)C)SC(C)(C)C`, for which the T/C is 95 % of control (dose: 100.0 mg/kg/injection, schedule: Q04DX002 (ip), vehicle: suspension in saline); 99 % of control (dose: 200.0 mg/kg/injection, schedule: Q04DX002 (ip), vehicle: suspension in saline); 93 % of control (dose: 400.0 mg/kg/injection, schedule: Q04DX002 (ip), vehicle: suspension in saline).

Consider `O=C1S/C(=C2\C(=O)N(CN3CCCCC3)c3ccccc32)C(=O)N1CN1CCCCC1`, for which the T/C (dose: 60.0 mg/kg/injection, schedule: Q01DX005 (ip), vehicle: Klucel (hydroxypropylcellulose) (HPC)) is 99 % of control; the T/C (dose: 120.0 mg/kg/injection, schedule: Q01DX005 (ip), vehicle: Klucel (hydroxypropylcellulose) (HPC)) was 96 % of control; the T/C (dose: 240.0 mg/kg/injection, schedule: Q01DX005 (ip), vehicle: Klucel (hydroxypropylcellulose) (HPC)) is 92 % of control.

On to `OCCN(CCO)c1ccc2ccc(N(CCO)CCO)nc2n1`, for which the T/C by setting is: under setting [15], 103 % of control; under setting [16], 103 % of control; under setting [17], 100 % of control.

Consider `NC(N)=N/C(N)=N\c1nn[nH]n1`, for which the T/C is 95 % of control under setting [18], 100 % of control under setting [19] and 100 % of control under setting [20].

As for `COc1ccc2c(n1)c(=NCCCCCCN=c1c3ccc(Cl)cc3n(O)c3ccc(OC)nc13)c1ccc(Cl)cc1n2O`, the T/C was 116 % of control under setting [16] and 100 % of control under setting [17].

For `CC1=C2CCCCC2(O)OC1=O` (stereo unspecified), the T/C reads like this: under setting [18], 100 % of control; under setting [19], 100 % of control; under setting [20], 103 % of control.

On to `NC(=S)N/N=C/c1ccncn1`, for which the T/C was 93 % of control (dose: 6.25 mg/kg/injection, schedule: Q01DX009 (ip), vehicle: Klucel (hydroxypropylcellulose) (HPC)); 111 % of control (dose: 6.25 mg/kg/injection, schedule: Q04DX003 (ip), vehicle: Klucel (hydroxypropylcellulose) (HPC)); 92 % of control (dose: 12.5 mg/kg/injection, schedule: Q01DX009 (ip), vehicle: Klucel (hydroxypropylcellulose) (HPC)); 101 % of control (dose: 12.5 mg/kg/injection, schedule: Q04DX003 (ip), vehicle: Klucel (hydroxypropylcellulose) (HPC)); 123 % of control (dose: 12.5 mg/kg/injection, schedule: Q04DX003 (ip), vehicle: saline with Tween-80); 100 % of control (dose: 25.0 mg/kg/injection, schedule: Q01DX009 (ip), vehicle: Klucel (hydroxypropylcellulose) (HPC)). Moreover, the T/C by setting is: under setting [21], 111 % of control; under setting [15], 112 % of control.

As to `N#CC(=Nc1cccc(F)c1)C1=C(O)c2ccccc2C1=O`, the T/C under setting [9] is 100 % of control and the T/C under setting [10] is 97 % of control.

`CC(C)(C)OC(=O)NN=C1CCC(C(C)(C)C)CC1` (stereo unspecified): the T/C by setting is: under setting [21], 100 % of control; under setting [15], 95 % of control; under setting [16], 100 % of control.
